Read-outs that look alike come from different tables or passages of the source.
Assays:
[1] = cited from earlier work
[2] = cited from earlier work; remark: listed apart in the source
[3] = Sitagliptin pharmacokinetics published in the literature; type: in vivo, human; details: comparison with ref 9
[4] = test system: engraftment of single unit UCB transplants; details: single unit UCB HCT, sitagliptin 600 mg OD days −1 to +2; cited from earlier work
[5] = Sitagliptin plasma pharmacokinetics in adults after single-unit UCB HCT; type: in vivo, human
[6] = 600 mg OD, HCT population; ref Farag, S.S. et al. [9]; cited from earlier work
[7] = 83 mg OD, ref Vincent, S.H. et al. [12]
[8] = 100 mg OD, ref Herman, G.A. et al. [14]
[9] = 100 mg OD, ref Kim, B.H. et al. [13]
[10] = 200 mg BID, ref Herman, G.A. et al. [16]
[11] = 600 mg OD, ref Bergman, A.J. et al. [10]
[12] = 600 mg OD, ref Herman, G.A. et al. [11]
[13] = bootstrap analysis median [5 – 95th percentiles], 200 data sets
[14] = population estimate (RSE%), 600 mg OD oral, HCT patients

Structure (SMILES): N[C@@H](CC(=O)N1CCn2c(nnc2C(F)(F)F)C1)Cc1cc(F)c(F)cc1F [sitagliptin]
- protein-bound [1]: 34–46%
- AUC0-∞ [2, 7]: 2460.15 ng·h/mL
- Cmax [2, 7]: 309.14 ng/mL
- AUC0-∞ ([2]; 100 mg OD, ref Bergman, A. et al. [15]): 3470.28 ng·h/mL
- AUC0-∞ ([2]; 100 mg OD, ref Bergman, A. et al. [17]): 3217.74 ng·h/mL
- AUC0-∞ [2, 8]: 3523.23 ng·h/mL
- Cmax [2, 8]: 390.61 ng/mL
- AUC0-∞ [2, 9]: 2407.23 ng·h/mL
- Cmax [2, 9]: 383.17 ng/mL
- AUC0-12 (column AUC0-∞, footnote b) [2, 10]: 5987.45 ^b ng·h/mL
- Cmax [2, 10]: 928.66 ng/mL
- AUC0-24 (column AUC0-∞, footnote a) [2, 11]: 22772.81 ^a ng·h/mL
- Cmax [2, 11]: 3156.65 ng/mL
- AUC0-∞ [2, 12]: 22402.05 ng·h/mL
- Cmax [2, 12]: 3437.7 ng/mL
- renal elimination ([2]; glomerular filtration and active secretion): 87%
- administered dose metabolized via CYP3A and 2C8 ([2]; healthy volunteers and patients with type 2 diabetes mellitus): 16%
- bioavailability ([2]; healthy volunteers): 87%
- clearance (dose/AUC0-∞) in non-HCT populations lower than in HCT (Farag et al.) [3]: 50%
- median time to engraftment [4]: 21 days
- VC/F (second line so labelled, row r8) [5, 13]: 207.51 [160.11 – 249.82] L
- ka [5, 13]: 0.22 [0.20 – 0.25] h^−1
- Vd/F ([5]; human, plasma, po, 600 mg): 176 L
- sitagliptin pharmacokinetics in the HCT population lower than published profiles ([5]; in vivo): ~ 50%
- CL/F, total apparent oral clearance [5, 14]: 84.79 (11.91) L/h
- Q/F, inter-compartmental distribution clearance [5, 14]: 14.29 (13.25) L/h
- VC/F (second line so labelled, row r8) [5, 14]: 217.62 (13.19) L
- ka, first order rate constant of absorption [5, 14]: 0.22 (7.47) h^−1
- AUC0-∞ [6]: 11661 ng·h/mL
- Cmax [6]: 1690 ng/mL
